The text below walks through data of ChEMBL document CHEMBL5360593, “Rare Caulamidine Hexacyclic Alkaloids from the Marine Ascidian Polyandrocarpa sp” (J Nat Prod, 2023).

Calls of active or inactive are those of the source. No cut-off for these calls is given here.

The target of this experiment is E3 ubiquitin-protein ligase CBL-B (Homo sapiens) (UniProt Q13191). In words: Inhibition of CBLB (unknown origin) using biotinylated ubiquitin as substrate at 20 uM incubated for 1 hr by microplate analysis.
Chain of E3 ubiquitin-protein ligase CBL-B (Homo sapiens) (Q13191 whole entry): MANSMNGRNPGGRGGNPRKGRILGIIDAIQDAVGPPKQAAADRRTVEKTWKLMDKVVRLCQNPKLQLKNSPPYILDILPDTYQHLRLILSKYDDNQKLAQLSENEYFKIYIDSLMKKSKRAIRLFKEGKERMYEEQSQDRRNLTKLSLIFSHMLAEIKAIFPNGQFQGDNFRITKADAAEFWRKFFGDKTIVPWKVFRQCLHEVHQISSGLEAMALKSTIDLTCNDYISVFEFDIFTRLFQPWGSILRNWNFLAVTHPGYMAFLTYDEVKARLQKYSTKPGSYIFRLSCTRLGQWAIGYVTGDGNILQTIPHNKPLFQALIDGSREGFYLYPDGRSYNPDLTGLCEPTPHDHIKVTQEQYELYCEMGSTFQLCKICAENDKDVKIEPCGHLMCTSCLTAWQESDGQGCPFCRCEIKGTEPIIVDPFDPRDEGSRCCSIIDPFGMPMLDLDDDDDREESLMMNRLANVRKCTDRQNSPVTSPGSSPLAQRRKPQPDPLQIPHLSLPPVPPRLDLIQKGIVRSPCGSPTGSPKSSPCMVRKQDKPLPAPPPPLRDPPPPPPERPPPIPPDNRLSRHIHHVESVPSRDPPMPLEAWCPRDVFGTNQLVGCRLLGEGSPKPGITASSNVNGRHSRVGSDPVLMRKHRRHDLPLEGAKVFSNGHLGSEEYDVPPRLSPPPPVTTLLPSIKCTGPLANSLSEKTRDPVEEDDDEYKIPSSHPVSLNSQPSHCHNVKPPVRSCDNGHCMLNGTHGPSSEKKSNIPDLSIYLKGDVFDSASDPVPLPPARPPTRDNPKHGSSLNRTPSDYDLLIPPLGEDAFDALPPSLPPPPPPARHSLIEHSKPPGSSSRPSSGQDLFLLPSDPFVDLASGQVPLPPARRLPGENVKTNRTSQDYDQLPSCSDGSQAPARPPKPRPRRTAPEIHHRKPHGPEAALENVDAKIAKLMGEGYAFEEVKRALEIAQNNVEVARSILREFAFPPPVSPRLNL
Regarding `CN1C[C@@H](Cl)[C@@]23C(=Nc4ccccc42)N(C)CC[C@@]32Cc3ccc(Br)cc3N=C12`, the inhibition result was “inactive”.

With `CN1C[C@@H](Cl)[C@@]23C(=Nc4cc(Br)ccc42)N(C)CC[C@@]32Cc3ccc(Br)cc3N=C12`, the inhibition result was “inactive”. For the compound `CN1C[C@H](Cl)[C@]23Cc4ccc(Br)cc4N(C)C2=NC[C@@H](Cl)[C@]32C1=Nc1ccccc12`, the inhibition entry is “inactive”. As for `CN1CC[C@]23Cc4ccc(Br)cc4N(C)C2=NC[C@@H](Cl)[C@]32C1=Nc1ccccc12`, the entry is “inactive”; as for `CN1CC[C@]23Cc4ccc(Br)cc4N(C)C2=NC[C@@H](Cl)[C@]32C1=Nc1cc(Br)ccc12`, “inactive”; as for `CN1C[C@@H](Cl)[C@@]23C(=Nc4ccccc42)N(C)C[C@H](Cl)[C@@]32Cc3ccc(Br)cc3N=C12`, “inactive”.
